This assay addresses BTK (Homo sapiens (Human), UniProt Q06187). The assay is described as follows: In vitro BTK kinase assay: BTK-POLYGAT-LS ASSAY.

In general, IC50 refers to the midpoint of a concentration-inhibition curve.

The structures appear in SMILES notation. Read-outs that look alike come from different tables or passages of the source.

Chain of BTK (Q06187 whole entry): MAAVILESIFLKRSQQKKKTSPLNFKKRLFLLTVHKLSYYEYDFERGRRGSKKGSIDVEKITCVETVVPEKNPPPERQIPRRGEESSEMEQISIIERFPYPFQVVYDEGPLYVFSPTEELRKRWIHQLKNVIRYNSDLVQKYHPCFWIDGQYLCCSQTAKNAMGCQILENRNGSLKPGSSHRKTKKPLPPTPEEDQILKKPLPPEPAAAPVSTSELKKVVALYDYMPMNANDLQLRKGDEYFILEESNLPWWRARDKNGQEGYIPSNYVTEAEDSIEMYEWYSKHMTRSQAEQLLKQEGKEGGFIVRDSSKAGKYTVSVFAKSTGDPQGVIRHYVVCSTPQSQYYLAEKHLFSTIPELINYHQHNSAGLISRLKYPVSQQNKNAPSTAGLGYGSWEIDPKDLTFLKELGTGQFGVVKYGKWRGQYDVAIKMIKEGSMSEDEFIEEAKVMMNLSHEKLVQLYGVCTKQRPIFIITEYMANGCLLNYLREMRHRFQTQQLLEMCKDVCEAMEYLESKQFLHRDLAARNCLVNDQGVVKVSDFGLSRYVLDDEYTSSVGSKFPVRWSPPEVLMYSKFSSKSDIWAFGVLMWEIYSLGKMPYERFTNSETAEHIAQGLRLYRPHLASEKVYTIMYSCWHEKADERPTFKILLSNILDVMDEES

For `N#Cc1ccccc1NC(=O)Nc1cccc(C2CCCN(c3ncnc4[nH]ccc34)C2)c1` (centres unmarked) [Cmpd 65, 1-(3-(1-(7H-pyrrolo[2,3-d]pyrimidin-4-yl)piperidin-3-yl)phenyl)-3-(2-cyanophenyl)urea], the IC50 (read-out: IC50 (10 uM ATP), 10 uM ATP, in vitro Btk kinase assay, Example 41) is more than 10 µM.

`O=C(NCC1COCCO1)Nc1cccc(C2CCCN(c3ncnc4[nH]ccc34)C2)c1` (centres unmarked) [compound 214] showed an IC50 of 1 to 10 µM.

The record behind these values is US9790229B2, “Bruton's tyrosine kinase inhibitors” (priority 2009, dated 2017).
